The record followed here is patent US8658661B2, “Oxadiazole inhibitors of leukotriene production” (Boehringer Ingelheim International GmbH, priority 2010, dated 2014).

Assay [1] has as its target T1, recombinant human FLAP protein (Homo sapiens, UniProt P20292).
T1 construct: made in house; host or cells: Sf9 insect cells (100,000×g membrane pellet used)
T1 sequence (P20292 1-161): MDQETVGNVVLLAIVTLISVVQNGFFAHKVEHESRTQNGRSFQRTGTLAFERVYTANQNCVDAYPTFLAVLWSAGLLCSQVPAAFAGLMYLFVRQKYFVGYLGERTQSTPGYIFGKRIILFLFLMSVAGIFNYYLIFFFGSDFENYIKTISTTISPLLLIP
Put plainly: FLAP binding assay (SPA, displacement of [125I]L-691,831). The following applies: membranes of sf9 cells expressing recombinant human FLAP; [125I]L-691,831 probe; read-out: FLAP binding IC50. The method, boiled down:
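Membranes from sf9 cells expressing human FLAP in pH 7.5 Tris buffer (MgCl2, EDTA, PMSF). Non-specific binding defined with 10 μM cold L-691,831.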
On the technique in general: Displacement assays read how much labelled ligand stays bound in the presence of the test substance.

The subject of assay [2] is synthesis of LTB4 in human whole blood. Description: Human whole blood assay (inhibition of LTB4 synthesis, calcimycin stimulated). The format is cell-based. The following applies: heparinized human whole blood, calcimycin 20 μM, plasma LTB4. The method, boiled down: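 Readout: plasma LTB4 by antibody-based HTRF. Compound added to heparinized human whole blood, 15 min 37° C; calcimycin 20 μM final (PBS pH 7.4), 30 min 37° C; spun 1500×g 5 min, plasma taken.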

As to `CN(C)C(=O)Cn1cc(-c2nc([C@@](C)(c3ccc(-c4cnc(N)cn4)cc3)C3CC3)no2)cn1` [Example 176, 2-[4-(3-{(R)-1-[4-(5-Amino-pyrazin-2-yl)-phenyl]-1-cyclopropyl-ethyl}-[1,2,4]oxadiazol-5-yl)pyrazol-1-yl]-N,N-dimethyl-acetamide], the results for the IC50 in assay [1] and in assay [2] were 1.2 nM and 73 nM, respectively.
The matching figures for `Cc1nc(-c2ccc([C@](C)(c3noc(-c4cnn(CC(=O)N(C)C)c4)n3)C3CC3)cc2)cnc1N` [Example 177, 2-[4-(3-{(R)-1-[4-(5-Amino-6-methyl-pyrazin-2-yl)-phenyl]-1-cyclopropyl-ethyl}-[1,2,4]oxadiazol-5-yl)-pyrazol-1-yl]-N,N-dimethyl-acetamide]: 8.9 nM and 66 nM.
Consider `Cc1cc(-c2ccc([C@](C)(c3noc(-c4cnn(CC(=O)N(C)C)c4)n3)C3CC3)cc2)cnc1N` [Example 178, 2-[4-(3-{(R)-1-[4-(6-Amino-5-methyl-pyridin-3-yl)-phenyl]-1-cyclopropyl-ethyl}-[1,2,4]oxadiazol-5-yl)-pyrazol-1-yl]-N,N-dimethyl-acetamide], for which the IC50 (usually the concentration that inhibits the measured activity by half) is 2.2 nM in assay [1] and 180 nM in assay [2].
The matching figures for `Cc1cc(-c2ccc([C@](C)(c3noc(-c4cnn(CC(C)(C)O)c4)n3)C3CC3)cc2)cnc1N` [Example 179, 1-[4-(3-{(R)-1-[4-(6-Amino-5-methyl-pyridin-3-yl)-phenyl]-1-cyclopropyl-ethyl}-[1,2,4]oxadiazol-5-yl)-pyrazol-1-yl]-2-methyl-propan-2-ol]: 4.6 nM and 49 nM.
Turning to `Cc1nc(-c2ccc([C@](C)(c3noc(-c4cnn(CC(C)(C)O)c4)n3)C3CC3)cc2)cnc1N` [Example 180, 1-[4-(3-{(R)-1-[4-(5-Amino-6-methyl-pyrazin-2-yl)-phenyl]-1-cyclopropyl-ethyl}-[1,2,4]oxadiazol-5-yl)-pyrazol-1-yl]-2-methyl-propan-2-ol], the values for the concentration for half-maximal inhibition (IC50) in assay [1] and in assay [2] were 2.9 nM and 29 nM, respectively.
The like results for `Cn1cc(-c2nc([C@@](C)(c3ccc(-c4ccc(N)nc4)cc3)C3CC3)no2)cn1` [Example 181, 5-(4-{(R)-1-Cyclopropyl-1-[5-(1-methyl-1H-pyrazol-4-yl)-[1,2,4]oxadiazol-3-yl]-ethyl}-phenyl)-pyridin-2-ylamine] were, in that order, 3.3 nM and 51 nM.
As to `CN(C)CCn1cc(-c2nc([C@@](C)(c3ccc(-c4cnc(N)nc4)cc3)C3CC3)no2)cn1` [Example 182, 5-[4-((R)-1-Cyclopropyl-1-{5-[1-(2-dimethylamino-ethyl)-1H-pyrazol-4-yl]-[1,2,4]oxadiazol-yl}-ethyl)-phenyl]-pyrimidin-2-ylamine], the values for the IC50 in assay [1] and in assay [2] were 3.1 nM and 14 nM, respectively.
`COCCn1cc(-c2nc([C@@](C)(c3ccc(-c4ccc(N)nc4)cc3)C3CC3)no2)cn1` [Example 183, 5-[4-((R)-1-Cyclopropyl-1-{5-[1-(2-methoxy-ethyl)-1H-pyrazol-4-yl]-[1,2,4]oxadiazol-3-yl}-ethyl)-phenyl]-pyridin-2-ylamine]: the IC50 in assay [1] is 5.5 nM; in assay [2] it was 39 nM.
As for `Cn1cc(-c2nc([C@@](C)(c3ccc(-c4cnc(N)cn4)cc3)C3CC3)no2)cn1` [Example 184, 5-(4-{(R)-1-Cyclopropyl-1-[5-(1-methyl-1H-pyrazol-4-yl)-[1,2,4]oxadiazol-3-yl]-ethyl}-phenyl)-pyrazin-2-ylamine], the IC50 was 2 nM in assay [1] and 23 nM in assay [2].
The matching figures for `Cc1cc(-c2ccc([C@](C)(c3noc(-c4cnn(C)c4)n3)C3CC3)cc2)cnc1N` [Example 185, 5-(4-{(R)-1-Cyclopropyl-1-[5-(1-methyl-1H-pyrazol-4-yl)-[1,2,4]oxadiazol-3-yl]-ethyl}-phenyl)-3-methyl-pyridin-2-ylamine]: 1.9 nM and 28 nM.
Take `CC(C)C(C)(c1ccc(-c2cnc(N)nc2)cc1)c1noc(N2CCN(CCO)CC2)n1` (centres unmarked) [Example 186, 2-[4-(3-{1-[4-(2-Amino-pyrimidin-5-yl)-phenyl]-1,2-dimethyl-propyl}-[1,2,4]oxadiazol-5-yl)-piperazin-1-yl]-ethanol]: the values for the 50% inhibitory concentration (IC50) in assay [1] and in assay [2] were 20 nM and 150 nM, respectively.
Turning to `Cc1nc(-c2ccc([C@](C)(c3noc(-c4cnn(C)c4)n3)C3CC3)cc2)cnc1N` [Example 187, 5-(4-{(R)-1-Cyclopropyl-1-[5-(1-methyl-1H-pyrazol-4-yl)-[1,2,4]oxadiazol-3-yl]-ethyl}-phenyl)-3-methyl-pyrazin-2-ylamine], the IC50 in assay [1] amounted to 17 nM; in assay [2], 23 nM.
The matching figures for `COCCn1cc(-c2nc([C@@](C)(c3ccc(-c4cnc(N)c(C)c4)cc3)C3CC3)no2)cn1` [Example 188, 5-[4-((R)-1-Cyclopropyl-1-{5-[1-(2-methoxy-ethyl)-1H-pyrazol-4-yl]-[1,2,4]oxadiazol-3-yl}-ethyl)-phenyl]-3-methyl-pyridin-2-ylamine]: 48 nM and 51 nM.
Take `COCCn1cc(-c2nc([C@@](C)(c3ccc(-c4cnc(N)c(C)n4)cc3)C3CC3)no2)cn1` [Example 189, 5-[4-((R)-1-Cyclopropyl-1-{5-[1-(2-methoxy-ethyl)-1H-pyrazol-4-yl]-[1,2,4]oxadiazol-3-yl}-ethyl)-phenyl]-3-methyl-pyrazin-2-ylamine]: the values for the 50% inhibitory concentration (IC50) in assay [1] and in assay [2] were 13 nM and 49 nM, respectively.
Consider `C[C@@](c1ccc(-c2cnc(N)nc2)cc1)(c1noc(-c2cnn(CCN)c2)n1)C1CC1` [Example 190, 5-[4-((R)-1-{5-[1-(2-Amino-ethyl)-1H-pyrazol-4-yl]-[1,2,4]oxadiazol-3-yl}-1-cyclopropyl-ethyl)-phenyl]-pyrimidin-2-ylamine], for which the IC50 amounted to 5.9 nM in assay [1] and 230 nM in assay [2].
The like results for `COCCn1cc(-c2nc([C@@](C)(c3ccc(-c4cnc(N)cn4)cc3)C3CC3)no2)cn1` [Example 191, 5-[4-((R)-1-Cyclopropyl-1-{5-[1-(2-methoxy-ethyl)-1H-pyrazol-4-yl]-[1,2,4]oxadiazol-3-yl}-ethyl)-phenyl]-pyrazin-2-ylamine] were, in that order, 5.9 nM and 17 nM.
The like results for `CC(C)C(C)(c1ccc(-c2cnc(N)nc2)cc1)c1noc(N2CCN(C(N)=O)CC2)n1` (centres unmarked) [Example 192, 4-(3-{1-[4-(2-Amino-pyrimidin-5-yl)-phenyl]-1,2-dimethyl-propyl} [1,2,4]oxadiazol-5-yl)-piperazine-1-carboxylic acid amide] were, in that order, 23 nM and 740 nM.
As to `CC(C)C(C)(c1ccc(-c2cnc(N)nc2)cc1)c1noc(N2CCN(CC(=O)N(C)C)CC2)n1` (centres unmarked) [Example 193, 2-[4-(3-{1-[4-(2-Amino-pyrimidin-5-yl)-phenyl]-1,2-dimethyl-propyl}-[1,2,4]oxadiazol-5-yl)-piperazin-1-yl]-N,N-dimethyl-acetamide], the IC50 in assay [1] was determined as 18 nM; in assay [2], 230 nM.
The matching figures for `COCCN(C)C(=O)Cn1cc(-c2nc([C@@](C)(c3ccc(-c4cnc(N)nc4)cc3)C3CC3)no2)cn1` [Example 194, 2-[4-(3-{(R)-1-[4-(2-Amino-pyrimidin-5-yl)-phenyl]-1-cyclopropyl-ethyl}-[1,2,4]oxadiazol-5-yl)-pyrazol-1-yl]-N-(2-methoxy-ethyl)-N-methyl-acetamide]: 6 nM and 96 nM.
The like results for `C[C@@](c1ccc(-c2cnc(N)cn2)cc1)(c1noc(-c2cnc(N3CCNCC3)cn2)n1)C1CC1` [Example 195, 5-(4-{(R)-1-Cyclopropyl-1-[5-(3,4,5,6-tetrahydro-2H-[1,2′]bipyrazinyl-5′-yl)-[1,2,4]oxadiazol-3-yl]-ethyl}-phenyl)-pyrazin-2-ylamine] were, in that order, 4.6 nM and 280 nM.
The like results for `C[C@@](c1ccc(-c2cnc(N)nc2)cc1)(c1noc(-c2cnc(N3CCNCC3)cn2)n1)C1CC1` [Example 196, 5-(4-{(R)-1-Cyclopropyl-1-[5-(3,4,5,6-tetrahydro-2H-[1,2′]bipyrazinyl-5′-yl)-[1,2,4]oxadiazol-3-yl]-ethyl}-phenyl)-pyrimidin-2-ylamine] were, in that order, 2.2 nM and 180 nM.
For `CN(C)C(=O)Cn1cc(-c2nc([C@@](C)(c3ccc(-c4cnc(N)[nH]c4=O)cc3)C3CC3)no2)cn1` [Example 197, 2-[4-(3-{(R)-1-[4-(2-amino-6-oxo-1,6-dihydro-pyrimidin-5-yl)-phenyl]-1-cyclopropyl-ethyl}-[1,2,4]oxadiazol-5-yl)-pyrazol-1-yl]-N,N-dimethyl-acetamide], the results for the concentration for half-maximal inhibition (IC50) in assay [1] and in assay [2] were 16 nM and > 5000 nM, respectively.
Regarding `CC(C)C(C)(c1ccc(-c2cnc(N)nc2)cc1)c1noc(N2CCC(C(C)(C)O)CC2)n1` (centres unmarked) [Example 198, 2-[1-(3-{1-[4-(2-Amino-pyrimidin-5-yl)-phenyl]-1,2-dimethyl-propyl}-[1,2,4]oxadiazol-5-yl)-piperidin-4-yl]-prop an-2-ol], the half-maximal inhibitory concentration (IC50) in assay [1] was 7.5 nM; in assay [2], 280 nM.
The like results for `CC(C)C(C)(c1ccc(-c2cnc(N)nc2)cc1)c1noc(N2CCNC(=O)C2)n1` (centres unmarked) [Example 199, 4-(3-{1-[4-(2-Amino-pyrimidin-5-yl)-phenyl]-1,2-dimethyl-propyl}-[1,2,4]oxadiazol-5-yl)-piperazin-2-one] were, in that order, 32 nM and 690 nM.
Turning to `CC(C)C(C)(c1ccc(-c2cnc(N)nc2)cc1)c1noc(N2CC(O)C2)n1` (centres unmarked) [Example 200, 1-(3-{1-[4-(2-Amino-pyrimidin-5-yl)-phenyl]-1,2-dimethyl-propyl}-[1,2,4]oxadiazol-5-yl)-azetidin-3-ol], the IC50 amounted to 15 nM in assay [1] and 250 nM in assay [2].
